Experimental findings from ChEMBL document CHEMBL6109086, “Discovery and biological evaluation of hederagenin derivatives as non-substrate inhibitors of P-glycoprotein-mediated multidrug resistance” (Eur J Med Chem, 2025) are described below.

Assay [1] is described as follows: Cytotoxicity against human KBV cells assessed as paclitaxel induced cytotoxicity by measuring cell survival at 10 uM measured after 72 hrs by MTT assay relative to control. The class given is functional.
The nature of assay [2]: Reversal of multi-drug resistance in human KBV cells assessed as paclitaxel induced cytotoxicity by measuring cell survival at 10 uM measured after 72 hrs by MTT assay relative to control. The class given is functional.

In the case of `COC(=O)[C@H](CC(C)C)NC(=O)COC(=O)[C@]12CCC(C)(C)C[C@H]1C1=CC[C@@H]3[C@@]4(C)Cc5nccnc5[C@@](C)(CO)[C@@H]4CC[C@@]3(C)[C@]1(C)CC2`, the values for the Activity in assay [1] and in assay [2] were 85.1% and 38.41%, respectively.

As to `CC1(C)CC[C@]2(C(=O)NCCCC(=O)OCCOCCO)CC[C@]3(C)C(=CC[C@@H]4[C@@]5(C)Cc6nccnc6[C@@](C)(CO)[C@@H]5CC[C@]43C)[C@@H]2C1`, the values for the Activity in assay [1] and in assay [2] were 91.43% and 70.13%, respectively.

For `CC1(C)CC[C@]2(C(=O)NCCCC(=O)OCCOCCOCCOCCOCCO)CC[C@]3(C)C(=CC[C@@H]4[C@@]5(C)Cc6nccnc6[C@@](C)(CO)[C@@H]5CC[C@]43C)[C@@H]2C1`, the Activity is 94.86% in assay [1] and 27.02% in assay [2].

On to `COC(=O)C[C@H](NC(=O)COC(=O)[C@]12CCC(C)(C)C[C@H]1C1=CC[C@@H]3[C@@]4(C)Cc5nccnc5[C@@](C)(CO)[C@@H]4CC[C@@]3(C)[C@]1(C)CC2)C(=O)OC`, for which the Activity worked out at 79.2% in assay [1] and 35.97% in assay [2].

Consider `CC1(C)CC[C@]2(C(=O)OCC(=O)OCc3ncco3)CC[C@]3(C)C(=CC[C@@H]4[C@@]5(C)Cc6nccnc6[C@@](C)(CO)[C@@H]5CC[C@]43C)[C@@H]2C1`, for which the values for the Activity in assay [1] and in assay [2] were 62.38% and 26.03%, respectively.

For the compound `COC(=O)[C@H](Cc1ccccc1)NC(=O)COC(=O)[C@]12CCC(C)(C)C[C@H]1C1=CC[C@@H]3[C@@]4(C)Cc5nccnc5[C@@](C)(CO)[C@@H]4CC[C@@]3(C)[C@]1(C)CC2`, the Activity in assay [1] was determined as 90.77%; in assay [2], 38.69%.

As to `CC1(C)CC[C@]2(C(=O)NCC(=O)OCCOCCOCCOCCOCCOCCOCCOCCOCCO)CC[C@]3(C)C(=CC[C@@H]4[C@@]5(C)Cc6nccnc6[C@@](C)(CO)[C@@H]5CC[C@]43C)[C@@H]2C1`, the Activity in assay [1] was 79.04%; in assay [2], 74.02%.

In the case of `CC1(C)CC[C@]2(C(=O)OCC(=O)NCc3cccs3)CC[C@]3(C)C(=CC[C@@H]4[C@@]5(C)Cc6nccnc6[C@@](C)(CO)[C@@H]5CC[C@]43C)[C@@H]2C1`, the Activity stood at 54.97% in assay [1] and 25.86% in assay [2].

As to `CC1(C)CC[C@]2(C(=O)NCCNC(=O)CNC(=O)CN)CC[C@]3(C)C(=CC[C@@H]4[C@@]5(C)Cc6nccnc6[C@@](C)(CO)[C@@H]5CC[C@]43C)[C@@H]2C1`, the Activity in assay [1] was found to be 91.41%; in assay [2] it was 87.67%.

Regarding `CC1(C)CC[C@]2(C(=O)OCC(=O)NCC3CCOCC3)CC[C@]3(C)C(=CC[C@@H]4[C@@]5(C)Cc6nccnc6[C@@](C)(CO)[C@@H]5CC[C@]43C)[C@@H]2C1`, the Activity was 78.91% in assay [1] and 30.34% in assay [2].

For `CC1(C)CC[C@]2(C(=O)OCC(=O)OCC3CCO3)CC[C@]3(C)C(=CC[C@@H]4[C@@]5(C)Cc6nccnc6[C@@](C)(CO)[C@@H]5CC[C@]43C)[C@@H]2C1` (stereo partly drawn), the Activity in assay [1] stood at 106.82%; in assay [2], 48.06%.

On to `CC1(C)CC[C@]2(C(=O)NCC(=O)OCCOCCOCCOCCOCCO)CC[C@]3(C)C(=CC[C@@H]4[C@@]5(C)Cc6nccnc6[C@@](C)(CO)[C@@H]5CC[C@]43C)[C@@H]2C1`, for which the Activity in assay [1] is recorded as 77.18%; in assay [2], 78.98%.

Consider `CC1(C)CC[C@]2(C(=O)NCCCC(=O)OCCOCCOCCOCCO)CC[C@]3(C)C(=CC[C@@H]4[C@@]5(C)Cc6nccnc6[C@@](C)(CO)[C@@H]5CC[C@]43C)[C@@H]2C1`, for which the Activity in assay [1] amounted to 93.67%; in assay [2], 28.96%.

Turning to `CC1(C)CC[C@]2(C(=O)NCCCC(=O)OCCOCCOCCO)CC[C@]3(C)C(=CC[C@@H]4[C@@]5(C)Cc6nccnc6[C@@](C)(CO)[C@@H]5CC[C@]43C)[C@@H]2C1`, the results for the Activity in assay [1] and in assay [2] were 96.02% and 63.88%, respectively.
